Experiment [1] relates to HCC827. Briefly: Cell killing, HCC827. The class given is cell-based, human. The settings on record: HCC827, NSCLC. Also on record: key: Sensitive; Resistant. The procedure: (§1) Briefly described, 2-3×10^3 cells/well in 100 μL of culture medium may be plated in 96 well plates and incubated overnight at 37° C., 5% CO2. The MET-ADCs, MET antibody(ies), control MMAE or control hIgG4 conjugated to MMAE with cysteine conjugation antibody(ies) may be diluted 1:3 in serum-free culture medium starting from 100 nM (final) in 50 μL as 3× concentrations to the HT-29 cells. At the end of an additional 5-6 days of cell growth at 37° C. in a humidified incubator with 5% CO2, the plates may be equilibrated to room temperature for 30 minutes and 100 μL/well of CellTiter-Glo® reagent (Promega Corp., Fitchburg, Wis.) may then be added to assess cell viability. Cell viability may be determined by measuring luminescence.
(§2) Various tumor cell lines and normal human cells may be tested for MET-ADC induced cell killing activity essentially as described above in Example 10 as assessed for MET receptor density. MET cell surface density was determined by indirect immunofluorescence staining of cell surface antigens on cultured cells using QIFIKIT (Dako). […] Following a forty-five minute incubation, cells may be incubated for 1 hour on ice with FITC conjugated antibody diluted 1:50 in FACS buffer. Then cells may be washed and receptor numbers may be determined by indirect immunofluorescence staining of the QIFIKIT beads using a Becton Dickinson LSRII flow cytometer.

The subject of experiment [2] is SNU1196. Nature of the experiment: Cell killing, SNU1196. It is filed as cell-based, human. Also on record: key: Sensitive; Resistant. The settings on record: SNU1196, Cholangiocarcinoma. The procedure: as §1, §2
In experiment [3] the test system is colorectal cancer PDX tumors. Briefly: Colorectal cancer PDX models. It is filed as in vivo, mouse. The settings on record: 1 or 3 mg/kg weekly, four doses. An excerpt: (§3) Body weight can also be assessed regularly.
Colorectal tumor samples from 37 human colorectal cancer patients were individually implanted into different immunocompromised mice (i.e., each mouse carried one tumor derived from a patient's […] tumor) essentially as described above in this Example 13.

Experiment [4] concerns cholangiocarcinoma PDX tumors. Briefly: Cholangiocarcinoma PDX model. It is filed as in vivo, mouse. As to conditions: 5 mg/kg weekly, four doses; 4 cholangiocarcinoma PDX.
Text: as §3
Tumor samples from 4 human cholangiocarcinoma patients were individually implanted into different immunocompromised mice (i.e., each mouse carried one tumor derived from a patient's cholangiocarcinoma tumor) essentially as described above in this Example 13.

The test system of experiment [5] is CXF-269L. Nature of the experiment: Cell killing, CXF-269L. Also on record: key to Sensitive/ Resistant: Sensitive; Resistant. It is filed as cell-based, human. On the procedure:
as §1, §2

The subject of experiment [6] is KP-4. Briefly: Cell killing, KP-4. It is filed as cell-based, human. Also on record: key: Sensitive; Resistant. The settings on record: KP-4, PANC Ca. The procedure:
as §1, §2

Experiment [7] has as its system Caco-2. Briefly: Cell killing, Caco-2. The class given is cell-based, human. Also on record: key: Sensitive; Resistant. The settings on record: Caco-2, Colorectal Ca. On the procedure: as §1, §2
Experiment [8] relates to HuAEC. Nature of the experiment: Cell killing, non-tumor HuAEC. It is filed as cell-based, human. Also on record: key: Sensitive; Resistant. As to conditions: aortic endothelia cell. On the procedure:
as §1, §2

Experiment [9] concerns Panc-1. Briefly: Cell killing, Panc-1. It is filed as cell-based, human. Also on record: key: Sensitive; Resistant. As to conditions: Panc-1, PANC Ca. The procedure: as §1, §2
In experiment [10] the test system is pancreatic cancer PDX tumors. Briefly: Pancreatic cancer patient-derived xenograft (PDX) models. The settings on record: 5 mg/kg weekly, four doses. It is filed as in vivo, mouse.
Text: as §3
Pancreatic tumors are known in the art to overexpress MET and have more than 90% KRAS mutations (Yabar, C. S. and Winter, J. M., Gastroenterol Clin N Am 45: 429-445 (2016)). Pancreatic tumor samples from 40 human pancreatic cancer patients were individually implanted into different immunocompromised mice (i.e., each mouse carried one tumor derived from a patient's […] tumor) essentially as described above in this Example 12.

Experiment [11] has as its system SW 1990. Briefly: Cell killing, SW 1990. It is filed as cell-based, human. Also on record: key: Sensitive; Resistant. The settings on record: SW 1990, PANC Ca. The procedure:
as §1, §2

The test system of experiment [12] is PC3. Nature of the experiment: Cell killing, PC3. The class given is cell-based, human. Also on record: key: Sensitive; Resistant. As to conditions: PC3, Prostatic Ca. The procedure: as §1, §2
Experiment [13] has as its system H1993. Briefly: Cell killing, H1993. The class given is cell-based, human. As to conditions: H1993, NSCLC. Also on record: key: Sensitive; Resistant. The procedure:
as §1, §2

In experiment [14] the test system is GEO. Nature of the experiment: Cell killing, GEO. It is filed as cell-based, human. Also on record: key: Sensitive; Resistant. The settings on record: Colorectal Ca. On the procedure:
as §1, §2

Experiment [15] relates to Calu-6 xenograft. Briefly: Calu-6 non-small-cell-lung cancer xenograft model. The class given is in vivo, mouse. The procedure:
Female athymic nude mice age 6- to 7-weeks old are available commercially, including from Harlan Laboratories (Indianapolis, Ind.). The mice are allowed to acclimate for one week and fed ad libitum on a normal low fat (4.5%) diet, which may be continued for the duration of the study. Tumor cells may be purchased from ATCC and may be cultured in cell culture media such as RPMI 1640 (Life Technologies) with L-glutamine, 25 mM HEPES supplemented with 10% FBS and 1 mM Na Pyruvate. Cells may be detached, washed with serum free medium and then resuspended at a final concentration of 50×10^6 cells/mL in serum free RPMI 1640. Tumor cells, approximately 5×10^6, may be injected subcutaneously in the rear flank of subject mice in a 1:1 mixture of serum free growth medium and Matrigel (Becton Dickinson, Bedford, Mass.). Tumor and body weight measurements may be performed twice weekly. Prior to treatment, mice can be randomized based on tumor size using a randomization algorithm. Treatments may be started when the average tumor volume reaches 100 mm^3. […]
MET-ADCs and control hIgG4-MMAE may be prepared in Phosphate Buffered Saline (PBS) prior to dose. Tumor size may be determined by caliper measurements. […] Log volume data can be analyzed with two-way repeated measures ANOVA by time and treatment using SAS PROC MIXED software (SAS Institutes Inc, Cary, N.C.). […]

Experiment [16] has as its system Aspc-1. Nature of the experiment: Cell killing, Aspc-1. The settings on record: Aspc-1, PANC Ca. The class given is cell-based, human. Also on record: key: Sensitive; Resistant. On the procedure: as §1, §2
Experiment [17] concerns Cal27. Briefly: Cell killing, Cal27. Also on record: key: Sensitive; Resistant. The class given is cell-based, human. As to conditions: Cal27, head and neck cancer. On the procedure: as §1, §2
For experiment [18], the system named is AOSMC. Briefly: Cell killing, non-tumor AOSMC. It is filed as cell-based, human. Also on record: key: Sensitive; Resistant. The settings on record: aortic smooth muscule cell. On the procedure: as §1, §2
The test system of experiment [19] is humen fresh hepatocyte. Nature of the experiment: Cell killing, fresh hepatocyte. The class given is cell-based, human. Also on record: key: Sensitive; Resistant. The procedure:
as §1, §2

Take “MET-ADC#1: emibetuzumab lysine-conjugated via (2,5-dioxopyrrolidin-1-yl) 2-azidoacetate and Octyne-β-Glucn-MMAE”: the “Sensitive/ Resistant” value in experiment [1] is recorded as “S”; in experiment [2], “R”; in experiment [5] (CXF-269L, Colorectal Ca), “S”; in experiment [6], “S”; in [7] it was “R”; in [8] it was “R”. Moreover, the “Sensitive/ Resistant” value is reported as “R” in experiment [9]; “R” in experiment [11]; “S” in experiment [12]; “S” in [13]; “R” in experiment [14]; “S” in experiment [16]. Further, the “Sensitive/ Resistant” value in experiment [17] was “S”; in [18], “R”; in [19], “R”. Also, the “Complete Response (CR)” value in experiment [3] (37 PDX) was determined as 5.4%. Further, in [3] (vs control hIgG4-ADC), the “activity in colorectal cancer PDX models” value is on record as “little activity”. For the same substance, in [4], the “inhibition of tumor growth” value is recorded as “dramatically inhibited tumor growth”. In addition, the “cell killing activity in CXF-269L cells” value in experiment [5] (CXF-269L (TP53) colon cancer cells) is given as “killed”. Further, the “DCR: disease control rate (CR+PR+SD over total 40)” value in [10] came out at 60%. Also, the “PD: progressive disease (% Delta T/C>10%), number of PDX” value in [10] (total 40) was found to be 16. Besides, the “PR: partial response (% Regression<=−50% and tumor volume>14 mm^3), number of PDX” value in experiment [10] (total 40) is 9. In addition, in experiment [10] (vs control hIgG4-ADC), the “effect on volume of pancreatic cancer PDX tumors” value is “profoundly reduced the volume of the pancreatic cancer PDX tumors”. Further, the antitumor efficacy result in experiment [15] was “initial tumor regression and stable disease status”.

Values taken from patent US11167039B2, “MET antibody drug conjugates” (priority 2016, dated 2021).
